In patent US9376449B2, “Indole carboxamide derivative” (Astellas Pharma Inc., priority 2012, dated 2016):
Where two headings read alike, the source gives them in different places.

Key:
human MT1 receptor = human MT1 receptor (Homo sapiens, UniProt P48039); experiment: Activation of human MT1 receptor in receptor-expressing HEK293 cells (intracellular Ca2+, FLIPR); type: cell-based; conditions: for EC50: HEK293 cells stably expressing human MT1 and Gq/i chimeric G-protein, intracellular Ca2+ by FLIPR
human MT1 receptor, sequence (P48039 whole entry): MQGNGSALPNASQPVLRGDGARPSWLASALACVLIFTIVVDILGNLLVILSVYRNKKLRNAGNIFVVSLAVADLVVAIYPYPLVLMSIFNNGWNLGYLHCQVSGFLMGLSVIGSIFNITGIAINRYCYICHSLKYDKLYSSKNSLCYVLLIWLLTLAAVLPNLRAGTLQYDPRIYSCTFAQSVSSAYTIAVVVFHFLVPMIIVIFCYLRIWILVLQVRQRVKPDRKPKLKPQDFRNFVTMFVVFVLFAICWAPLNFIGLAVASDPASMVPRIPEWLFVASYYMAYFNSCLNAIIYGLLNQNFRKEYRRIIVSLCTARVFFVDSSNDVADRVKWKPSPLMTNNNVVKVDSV
Description: (§1) (1) Isolation of Human MT1 and MT2 Receptor and Construction of Expression Vector
(§2) A human MT1 receptor gene (GenBank Accession No.: NM_005958.3) and a human MT2 receptor gene (GenBank Accession No.: NM_005959.3) were each introduced into an expression vector pCDNA3.1/Zeo (Invitrogen, Inc.).
(§3) (2) Construction of Cells Stably Expressing Human MT1 and Human MT2 Receptor
(§4) The introduction was carried out according to the attached instructions, using a Lipofectoamine (registered trademark) 2000 Reagent (Invitrogen, Inc.). Zeocin and hygromycin were used as a resistant drug, and the cell was incubated for 15 days at 0.02 mg/mL and 0.05 mg/mL, respectively, thereby acquiring drug-resistant clones.
(§5) (3) Measurement of Intracellular Ca^2+ Concentration by FLIPR (Registered Trademark)
(§6) The respective stably expressing cells were dispensed into 96-well poly-D-lysine-coated plates (Falcon Co.) to 40,000 cells/well the day before the experiment, and incubated overnight in a DMEM (Invitrogen, Inc.) medium including 10% FBS at 37° C. and 5% CO2. The medium was replaced with a loading buffer (washing solution (Hank's balanced salt solution (HBSS), 20 mM HEPES-NaOH, 2.5 mM probenecid) including Fluo-4AM (Dojindo Co.) at 4 μM), and incubated for 1 hour at 37° C. and 5% CO2. Thereafter, the cells were washed with a plate washer (ELx405, BIO-TEK Instrument, Inc.) set with the washing solution, and set in an intracellular Ca^2+ concentration measuring systems (FLIPR (registered trademark), Molecular Device Co.). The test compound was dissolved in the washing solution in advance, diluted to a final concentration of −12 to −5 log M, set in a FLIPR (registered trademark) device together with the cells, and added to the cells in the device. At this time, a change in the intracellular Ca^2+ concentrations was measured.
(§7) Ex represents Example No. of the test compound.

human MT2 receptor = molecular target: T1, human MT2 receptor (Homo sapiens, UniProt P49286); experiment: Activation of human MT2 receptor in receptor-expressing HEK293 cells (intracellular Ca2+, FLIPR); type: cell-based; conditions: for Emax: HEK293, maximum reaction by ramelteon taken as 100%, solvent only 0%; for EC50: HEK293 cells stably expressing human MT2 and Gq/i chimeric G-protein, intracellular Ca2+ by FLIPR
T1 sequence (P49286 1-362): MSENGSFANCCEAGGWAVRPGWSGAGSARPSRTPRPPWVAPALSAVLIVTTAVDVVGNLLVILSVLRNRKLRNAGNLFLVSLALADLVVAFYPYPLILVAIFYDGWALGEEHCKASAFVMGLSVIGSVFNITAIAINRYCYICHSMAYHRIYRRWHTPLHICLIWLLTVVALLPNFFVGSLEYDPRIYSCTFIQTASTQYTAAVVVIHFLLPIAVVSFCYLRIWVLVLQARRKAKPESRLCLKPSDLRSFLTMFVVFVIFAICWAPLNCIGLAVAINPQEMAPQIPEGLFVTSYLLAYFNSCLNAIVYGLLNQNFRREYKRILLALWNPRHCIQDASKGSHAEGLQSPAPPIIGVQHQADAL
Description: as §1, §2, §3, §4, §5, §6, §7

isolated urethra [1] = experiment: Isolated urethra contractile action; parameters: species or system rat; conditions: test compound at 1 μM; contractile response by 10 μM phenylephrine as 100%; SD female rat urethra; read-out: Isolated urethra contraction (%)
Description: Test Example 2 Isolated Urethra Contractile Action
(1) Evaluation Test on Urethra Contractile Action of Test Compound Using Isolated Urethra
The urethra was isolated from an SD female rat having a body weight of 100 to 500 g. The isolated urethra was incised longitudinally to give a rectangular strip specimen having a width of about 3 mm, which was suspended in the circular muscle direction in 10 mL of a tissue bath filled with a Krebs-Henseleit solution (pH 7.4). The Krebs-Henseleit solution was bubbled with 95% O2 and 5% CO2, and kept at 37° C. The resting tension was set to 0.5 g to record the isometric contraction. After the resting tension was stabilized, contraction was elicited by the addition of 10 μM phenylephrine. After washing and stabilizing, the test compound was added cumulatively to a final concentration of −12 to −5 log M to measure a contractile response. By taking the contractile response by 10 μM phenylephrine as 100%, the ratio of the contractile response in the concentration of the test compound at 1 μM was calculated.
as §7

urethral pressure = experiment: Effect of test compound on urethral pressure in anesthetized rats; type: in vivo, rat; conditions: urethane-anesthetized SD female rats
Source text: Test Example 3 Test to Evaluate Effect of Test Compound on Urethral Pressure
It has been reported that an increase in the urethra pressure is useful for the treatment of urinary incontinence, particularly stress urinary incontinence (for example, Drugs, 64, 14, 1503-1516 (2004)). In order to confirm whether the compound of the present invention increases the urethra pressure and thus is useful for the treatment of urinary incontinence, particularly stress urinary incontinence, the following tests were carried out.
SD female rats were anesthetized with urethane and subjected to laparotomy. Then, the bladder apex was incised and a catheter was inserted from the bladder apex. Further, the catheter tip was ligated and fixed to be located in the proximal urethra portion. The catheter was connected to a pressure transducer and an infusion pump. Further, a catheter for administrating the compound was fitted into the femoral vein. Physiological saline was continuously infused into the urethra and the perfusion pressure in the urethra was measured. After the urethral pressure was stabilized, the test compound that had been dissolved in physiological saline, or physiological saline including 5% dimethylacetamide and 0.5% Cremophor was administered intravenously at 0.1 mg/kg, and a change in urethral pressures was measured.
Further, the results of administering an active metabolite of midodrine (ST-1059: purchased from CHEMIZON) (J. Urology, 118, 980-982 (1977)) which is an α1 adrenoceptor agonist and has an effect on stress urinary incontinence in rat doses (0.01 mg/kg) presumed to correspond to the clinical doses are referenced and shown in the Tables below. The increment value in the urethra pressures of ramelteon and the Example compounds of the present invention at the time of administration are shown in Table 4. Ex represents Example No. of the test compound.

[2] = CNS penetration: CSF to plasma unbound concentration ratio in rat; type: in vivo; conditions: CSF and plasma (unbound), iv, 15 minutes after intravenous administration, CCSF/Cplasma,u, read-out: Kp,uu,CSF,iv15min
Description: Test Example 4 Test for Evaluating CNS Penetration
(1) Measurement of Unbound Fraction (fp) in Rat Plasma
A test compound (100 μg/mL, 50% acetonitrile solution) at 1% (v/v) with respect to the amount of the plasma was added to rat plasma, and dispensed to a sample for a supernatant and a sample for the plasma. The sample for a supernatant was ultracentrifuged at 436,000×g and 37° C. for 140 minutes, and the sample for the plasma was incubated at 37° C. for 140 minutes.
After 140 minutes, the sample for a supernatant after the ultracentrifugation and the sample for the plasma were taken, and mixed with the blank plasma or the blank supernatant, respectively. Acetonitrile including an internal standard material was added to each of the samples, and after the centrifugation at 2150×g and 4° C. for 10 minutes the supernatant was injected into LC-MS/MS.
The unbound fraction in the plasma was calculated by the following equation.
(wherein fp: an unbound fraction in the plasma and D: a dilution rate of the plasma. fu,app=peak area ratio of supernatant sample/peak area ratio of the plasma sample, and peak area ratio=peak area of test compound/peak area of internal standard material).
(2) The CSF to Plasma Unbound Concentration Ratio in Rat
A 50% acetonitrile solution and an acetonitrile including internal standard material was added to the collected plasma or CSF. After centrifugation at 4° C. and 2150×g for 10 minutes, the supernatant was injected into LC-MS/MS, and the total concentration of the test compound in the plasma (Cplasma,t) and the concentration of the test compound in CSF (CCSF) were obtained. The unbound concentration in the plasma (Cplasma,u) of the test compound and the CSF-to plasma unbound concentration ratio (Kp,uu,CSF) of the test compound was calculated by the following equation.
as §7

3T3 = experiment: In vitro 3T3 NRU phototoxicity test; type: cell-based
Description: Test Example 6 Drug Pharmacokinetic Test, Safety Pharmacology Test, and Toxicity Test
Using some Example compounds of the present invention, a drug Pharmacokinetic test, a safety pharmacology test, and a toxicity test were carried out.
(iii) For the toxicity test, for example, an in vitro phototoxicity test was carried out. The evaluation of the in vitro phototoxicity test was carried out in accordance with Guidance for industry photosafety testing, Center for Drug Evaluation and Research Food and Drug Administration, 2003, which is a guideline of FDA (U.S. Food and Drug Administration), and Note for guidance on photosafety testing (CPMP/SWP/398/01, 2002) which is a guideline of EMA (European Medicines Agency), and the method described in OECD guideline for testing of chemicals 432: In vitro 3T3 NRU phototoxicity test, 2004, which is a test method described in the report of OECD.

isolated urethra [3] = experiment: Test confirming that urethra contractile action by ramelteon is through MT1 and/or MT2 receptor (Luzindole); parameters: species or system rat; conditions: for Second contractile rate by ramelteon (%): 20 minutes before ramelteon 1 μM, first contraction as 100%
Description: (2) Test for Confirming that Urethra Contractile Action is Action Through MT1 and/or MT2 Receptor
The urethra was isolated from an SD female rat having a body weight of 100 to 500 g. The isolated urethra was incised longitudinally to give a rectangular strip specimen having a width of about 3 mm, which was suspended in the muscle parallel to the circular to 10 mL of a tissue bath filled with a Krebs-Henseleit solution (pH 7.4). […] The resting tension was set to 0.5 g to record the isometric contraction. After the resting tension was stabilized, contraction was elicited by the addition of 10 μM phenylephrine. After washing and stabilizing, the test compound (ramelteon) at 1 μM was added to measure a contractile response. After washing and stabilizing, a solvent or Luzindole (purchased from Wako Pure Chemical Industries, Ltd.) (0.1 μM, 1 μM, or 10 μM) was added to the same specimen, and after 20 minutes, ramelteon at 1 μM was added again thereto to measure a contractile reaction. When the first contraction by ramelteon at 1 μM was taken as 100%, the second contractile rate by ramelteon was measured.

[4] = HEK293, maximum reaction by ramelteon taken as 100%, solvent only 0%, read-out: MT1 Emax (%)

SMILES	Emax (human MT1 receptor; [4])	EC50 (human MT1 receptor)	Emax (human MT2 receptor)	EC50 (human MT2 receptor)	activation at 1 µM (isolated urethra [1])	Increment value in the urethra pressures (mmHg) (urethral pressure; 0.1 mg/kg intravenously)	also measured
CNC(=O)c1[nH]c2ccc(OC)cc2c1CCNC(C)=O [Ex 1, 3-(2-acetamidoethyl)-5-methoxy-N-methyl-1H-indole-2-carboxamide]	104%	12 nM	108%	26 nM	128%	5.1 ± 0.6 mmHg	Kp uu at 0.25 h [2]: 0.18; phototoxicity action (3T3): no phototoxicity action
CNC(=O)NCCc1c(C(=O)NC)[nH]c2ccc(OC)cc12 [Ex 8, 5-methoxy-N-methyl-3-{2-[(methylcarbamoyl)amino]ethyl}-1H-indole-2-carboxamide]	124%	12 nM	119%	19 nM	–	6.0 ± 0.4 mmHg	Kp uu at 0.25 h [2]: 0.03; phototoxicity action (3T3): no phototoxicity action
CNC(=O)c1[nH]c2cc(Cl)c(OC)cc2c1CCNC(C)=O [Ex 12, 3-(2-acetamidoethyl)-6-chloro-5-methoxy-N-methyl-1H-indole-2-carboxamide]	68%	86 nM	70%	12 nM	–	–	–
CCCC(=O)NCCc1c(C(=O)NC)[nH]c2ccc(OC)cc12 [Ex 32]	106%	7.7 nM	111%	31 nM	143%	10.8 ± 2.9 mmHg	–
CCCC(=O)NCCc1c(C(=O)NC)[nH]c2cc(Cl)c(OC)cc12 [Ex 34, 3-[2-(butyrylamino)ethyl]-6-chloro-5-methoxy-N-methyl-1H-indole-2-carboxamide]	75%	32 nM	92%	4.4 nM	–	–	–
CCCC(=O)NCCc1c(C(=O)NC)[nH]c2cc(F)c(OC)cc12 [Ex 35]	110%	3.2 nM	102%	11 nM	171%	8.2 ± 1.6 mmHg	–
CCC(=O)NCCc1c(C(=O)NC)[nH]c2cc(F)c(OC)cc12 [Ex 36]	121%	10 nM	104%	18 nM	107%	7.3 ± 0.2 mmHg	–
CNC(=O)c1[nH]c2ccc(OC)nc2c1CCNC(=O)C(F)F [Ex 48]	122%	12 nM	109%	43 nM	–	7.3 ± 0.7 mmHg	–
CNC(=O)c1[nH]c2c(F)cc(OC)cc2c1CCNC(=O)C(F)F [Ex 53]	103%	19 nM	105%	9.2 nM	–	10.5 ± 0.6 mmHg	–
CC(=O)NCCc1c(Cc2ccccc2)[nH]c2ccccc12 [Luzindole]	–	–	–	–	–	–	Second contractile rate by ramelteon (%) (isolated urethra [3]; Luzindole 0.1 μM): 88 ± 11%; Second contractile rate by ramelteon (%) (isolated urethra [3]; Luzindole 1 μM): 75 ± 5%; Second contractile rate by ramelteon (%) (isolated urethra [3]; Luzindole 10 μM): 61 ± 9%; inhibition of isolated urethra contractile action by ramelteon (isolated urethra [3]; treatment with Luzindole 0.1-10 μM, in words): inhibited in a concentration-dependent manner
COc1ccc2[nH]cc(CCNC(C)=O)c2c1 [Melatonin, melatonin, reference compound]	–	–	–	–	–	–	Emax (human MT1 receptor; HEK293, read-out: MT1 Emax (%)): 94%
COc1ccc(OC)c(C(O)CN)c1 (stereo not drawn) [ST-1059, reference compound]	–	–	–	–	–	–	Increment value in the urethra pressures (mmHg) (urethral pressure; 0.01 mg/kg (rat dose presumed to correspond to clinical dose)): 4.9 ± 1.1 mmHg
